Results published in patent US8563514B2, “Peptides and pharmaceutical compositions for treating connective tissue” (Metamorefix, priority 2007, dated 2013).
Entries after “also recorded” stand apart in the source; their conditions may differ.

Tests used:
[1] = system: human foreskin fibrobalsts (FF1); experiment: Cell attachment assay in monolayers (peptide-coated Sepharose beads), FF1; format: cell-based; conditions: for activity in comparison with the positive control PreC-gamma: FIG. 3b, cell type not stated; for time to saturated attachment: Conclusions b109, concentration and cell type not stated; for Nomarsky optics microscopy of peptide coated beads attached to FF1 (observation): 3 days to 3 weeks of incubation; for cell binding activity at the lower dose (words): 6 mg peptide/ml compared with 12 mg/ml
Method: (§1) 100 mg of dried CNBr-Sepharose Beads (yields 350 μl of swollen Sepharose Beads—gel) was introduced into a disposable polystyrene mini-column (FIG. 1), appropriate for the preparation of a 0.5-2 ml gel filtration column (Pierce, Prod #29920). The lower part of the columns is blocked by a thick glass filter and a stopper.
(§2) 3-4 ml total volume of HCl solution (1 mM) was added to the column, and the liquid was forced to flow under vacuum pressure through the gel. This process was repeated 5 times. The final aliquot of HCl was aspirated until cracks appeared in the gel cake. 2-3 ml aliquots of coupling buffer were immediately added to the washed beads and aspirated. This step was repeated 4-5 times. The high pH hydrolyzes and opens the active groups.
(§3) A peptide solution in coupling buffer prepared as above was immediately added to the activated SEPHAROSE BEADS Sepharose beads were used to fixate the peptides for all in-vitro assays in the column to a final binding of 6 mg peptide per ml SEPHAROSE BEADS gel. The column was closed and shaken overnight at 4° C. very gently to avoid mechanical breakage of SEPHAROSE BEADS. The bottom cap of the column was removed and the solution of ligand/buffer was collected as the Sepharose Beads settled on the filter. The OD280 of the collected buffer was checked to determine the concentration of uncoupled peptide. The gel was washed/aspirated with 5 volumes (˜2 ml) of coupling buffer and gently mixed. Any remaining active groups on the gel were blocked with blocking buffer for 2 hours at room temperature or overnight at 4° C. The Sepharose Beads gel with peptides was then washed by 2 cycles each of 5 gel volumes of: • a. 0.1 M Acetate buffer • b. Coupling buffer • c. Storing buffer: azide-coupling buffer: coupling buffer containing 0.1% NaN3 (final concentration)
(§4) The tested peptides (Table 1) were coupled to Sepharose Beads at two concentrations: 6 and 12 mg/ml Sepharose Beads. Sepharose Beads that underwent the coupling procedure without peptide addition (“naked Sepharose Beads”) served as a negative control (referred to herein as “Sepharose Beads—blank”). A cell binding assay was performed with 2 normal cell types: bovine aortal endothelial cells (BAEC) and human foreskin fibrobalsts (FF1). Sepharose Beads were added to 12 well culture plates with sub-confluent monolayer of the cultured cells (100-300 beads were added to each well). The fraction of Sepharose Beads attached to the monolayer was monitored at different times.

[2] = system: bovine aortal endothelial cells (BAEC); experiment: Cell attachment assay in monolayers (peptide-coated Sepharose beads), BAEC; format: cell-based; conditions: for cell binding activity at the lower dose (words): BAEC monolayer, 6 mg peptide/ml compared with 12 mg/ml; for Nomarsky optics microscopy of peptide coated beads attached to BAEC (observation): 3 weeks of incubation; for overall activity at longer incubation times: microscopy, statement follows FF1 and BAEC paragraphs
Method: as §1, §2, §3, §4

BAEC = experiment: Toxicity assay for the peptides (MTS cell survival), BAEC; format: cell-based, bovine
Method: (§5) A toxicity assay was done to determine the toxicity of the peptides tested to either one of the cell lines used. 15×10^3 cells (FF1 or BAEC) were seeded in 96 well plastic plates. After an overnight incubation, increasing concentrations of peptides in the range of 0.1-300 μg/ml were added to the wells. Cell survival was checked by the MTS assay after 2 and 5 days and normalized to the cell number of the controls (no peptide).

FF1 in suspension = experiment: Cell attachment assay in cell suspensions (MTS assay); format: cell-based, human; conditions: followed over days
Source text: Attachment of FF1 in suspension to peptides bound to sepharose beads was followed using the MTS assay. The MTS assay uses tetrazolium, which is taken up by viable cells and converted into formazan, which has a light absorption peak at 492 nm. The light absorbance at 492 (OD492) is directly proportional to the number of the living cells attached to the beads. Calibration curves were used to transform the OD492 readings into cell number, […]

FF1 = experiment: Toxicity assay for the peptides (MTS cell survival), FF1; format: cell-based, human
Method: as §5

[3] = FF1 monolayer, 6 mg peptide/ml Sepharose beads
[4] = FF1, FIG. 3a, peptide concentration not given
[5] = high concentrations (>100 μg/ml), 5 days
[6] = very high concentrations (>100 μg/ml), prolonged exposure (5 days)

C-M-Fic-a-K: peptide having the sequence KGYKYSYKVSEMKFQRRMDGSVDFYRK (SEQ ID NO: 7) (listed as Homo sapiens)
rate / kinetics of cell binding compared with positive control PreC ([1]; FF1 monolayer, 6 mg peptide/ml): accelerated the kinetics of cell binding

M-Fic-K: peptide having the sequence GGWTVFQRRMDGSVDFYRK (SEQ ID NO: 5) (listed as Homo sapiens)
activity in comparison with the positive control PreC-gamma ([1]; 6 mg peptide/ml): dramatic change in activity

C-Fic-a-K: peptide having the sequence KGYKYSYKVSEMKVRPAK (SEQ ID NO: 4) (listed as Homo sapiens)
cell binding (extent reached) [1, 3]: 100%

M-Fic: peptide having the sequence GGWTVFQRRVDGSVDFYRK (SEQ ID NO: 2) (listed as Homo sapiens)
cell binding activity at the lower dose (words) [2]: slight decrease
Nomarsky optics microscopy of peptide coated beads attached to BAEC (observation) ([2]; BAEC): formation of small tubes
overall activity at longer incubation times [2]: highest activity
time to saturated attachment [1]: 72 h
Nomarsky optics microscopy of peptide coated beads attached to FF1 (observation) ([1]; FF1): aggregates of cells and beads formed
time to reach 100% / saturated cell binding ([1]; FF1 monolayer, 6 mg peptide/ml): ≤ 24 h
cell binding activity at the lower dose (words) ([1]; FF1 monolayer): retains its activity
cell binding activity at the lower dose (words) ([1]; FF1 monolayer, listed as M-fic): retain most of its activity
activity in comparison with the positive control PreC-gamma ([1]; 6 mg peptide/ml): initially inferior to the positive control

C-M-Fic2K: peptide having the sequence KGYKYSYKGGWTVFQRRMDGSVDFYRK (SEQ ID NO: 6) (listed as Homo sapiens)
cell binding (extent reached) [1, 4]: 100%
kinetic profile of cell binding [1, 4]: good kinetic profile of cell binding (fast attachment)

C-M-Fic: peptide having the sequence KGYNYSYKVSEMKFQRRVDGSVDFYRK (SEQ ID NO: 3) (listed as Homo sapiens)
cell binding activity at the lower dose (words) [2]: slower rate at the lower concentration
Nomarsky optics microscopy of peptide coated beads attached to BAEC (observation) ([2]; BAEC): formation of small tubes
overall activity at longer incubation times [2]: also active
cell survival, normalized to controls (BAEC; [5]): about 50%
toxicity (BAEC; [6]): some minor toxicity
time to saturated attachment [1]: 72 h
Nomarsky optics microscopy of peptide coated beads attached to FF1 (observation) ([1]; FF1): aggregates of cells and beads formed
time to reach 100% / saturated cell binding ([1]; FF1 monolayer, 6 mg peptide/ml): 96 h
cell binding (extent reached) [1, 3]: 100%
cell binding activity at the lower dose (words) ([1]; FF1 monolayer): strongly affected by the decrease
cell binding activity at the lower dose (words) ([1]; FF1 monolayer, listed as C-M-fic): strongly affected by the lowerdose
time to reach 100% / saturated cell binding ([1]; FF1 monolayer, 6 mg peptide/ml, listed as C-M-fic): ≤ 96 h
rate of cell binding compared to the lower concentration ([1]; FF1 monolayer, 12 mg peptide/ml): slightly faster cell binding
time to reach 100% cell binding ([1]; FF1 monolayer, higher dose (12 mg/ml)): 20 h
attachment of FF1 cells in suspension to coated sepharose beads over time (words) (FF1 in suspension; listed as C-M-fic): an increase in cell number is detected after the first day
attachment of FF1 cells in suspension to coated sepharose beads over time (words) (FF1 in suspension; listed as CM-fic): stable for at least three days
cell survival, normalized to controls (FF1; [5]): about 50%
toxicity (FF1; [6]): some minor toxicity

PreC: positive control peptide KTRWYSMKKTTMKIIPFNR (SEQ ID NO: 10) (listed as Homo sapiens) [reference compound]
cell binding (extent reached) [1, 3]: 100%

C-M-Fic2: peptide having the sequence KGYKYSYKGGWTVFQRRMDGSVDFYR (SEQ ID NO: 8) (listed as Homo sapiens)
cell binding (extent reached) [1, 4]: 100%
kinetic profile of cell binding [1, 4]: good kinetic profile of cell binding (fast attachment)

C-Fic: peptide having the sequence KGYNYSYKSEMKVRPA (SEQ ID NO: 1); subsequence of human ficolin (listed as Homo sapiens)
cell binding activity at the lower dose (words) [2]: completely looses reactivity
cell binding activity at the lower dose (words) ([2]; listed as C-fic): did not attach; also recorded: some activity
extent of cell binding ([2]; BAEC, 6 mg peptide/ml, after 96 hours of incubation): about 30%
extent of cell binding ([1]; FF1, 6 mg peptide/ml, after 96 hours of incubation): about 30%
cell binding activity at the lower dose (words) ([1]; FF1 monolayer): no reactivity
cell binding activity at the lower dose (words) ([1]; FF1 monolayer, listed as C-fic): did not attach; also recorded: looses its activity; also recorded: inactive
cell binding (extent reached) ([1]; FF1 monolayer, 12 mg peptide/ml, up to 150 hours): 100%
